Experimental data as given in ChEMBL document CHEMBL1135042, “Structure-activity relationships for analogues of the phenazine-based dual topoisomerase I/II inhibitor XR11576” (Bioorg Med Chem Lett, 2002).

How the values were obtained:
NCI-H69 [1] = assay: In vitro cytotoxicity against human small cell lung carcinoma H69/P.; format: functional, cell-based
[2] = Ratio of IC50 values against H69/P and […] cell lines.; format: functional
NCI-H69 [3] = assay: In vitro cytotoxicity against multi-drug resistant human small cell lung carcinoma H69/LX4.; format: functional, cell-based

CC/N=C(\S)Oc1ccc2c(c1)cc(C(=O)NCCN(C)C)c1nc3ccccc3nc12
IC50 (NCI-H69 [1]): 519 nM
Ratio [2]: 1.12
IC50 (NCI-H69 [3]): 583 nM

CN(C)CCNC(=O)c1cccc2ncc(-c3ccc([N+](=O)[O-])cc3)nc12
IC50 (NCI-H69 [1]): 2400 nM
Ratio [2]: 1.41
IC50 (NCI-H69 [3]): 3380 nM

C#CCOc1ccc2c(c1)cc(C(=O)NCCN(C)C)c1nc3ccccc3nc12
IC50 (NCI-H69 [1]): 435 nM
Ratio [2]: 1.4
IC50 (NCI-H69 [3]): 613 nM

CN(C)CCNC(=O)c1cc2ccccc2c2nc3ccccc3nc12
IC50 (NCI-H69 [1]): 406 nM
Ratio [2]: 1.26
IC50 (NCI-H69 [3]): 511 nM

CN(C)CCNC(=O)c1cccc2nc(-c3ccccc3)c(-c3ccccc3)nc12
IC50 (NCI-H69 [1]): > 100000 nM
IC50 (NCI-H69 [3]): > 100000 nM

CN(C)CCNC(=O)c1cccc2ncc(-c3ccccc3)nc12
IC50 (NCI-H69 [1]): 3930 nM
Ratio [2]: 0.9
IC50 (NCI-H69 [3]): 3590 nM

Cc1cccc2nc3c(nc12)c(C(=O)NCCN(C)C)cc1ccccc13
IC50 (NCI-H69 [1]): 417 nM
Ratio [2]: 0.8
IC50 (NCI-H69 [3]): 320 nM

CN(C)CCNC(=O)c1cccc2nc3c(nc12)-c1cccc2cccc-3c12
IC50 (NCI-H69 [1]): 350 nM
Ratio [2]: 0.93
IC50 (NCI-H69 [3]): 330 nM

CN(C)CCNC(=O)c1cc2cc(OC(=O)Nc3ccccc3)ccc2c2nc3ccccc3nc12
IC50 (NCI-H69 [1]): 104 nM
Ratio [2]: 2.42
IC50 (NCI-H69 [3]): 252 nM

CN(C)CCNC(=O)c1cc2cc(OCCCO)ccc2c2nc3ccccc3nc12
IC50 (NCI-H69 [1]): 523 nM
Ratio [2]: 3.87
IC50 (NCI-H69 [3]): 2030 nM

COc1ccc2c(c1)cc(C(=O)NCCN(C)C)c1nc3ccccc3nc12
IC50 (NCI-H69 [1]): 282 nM
Ratio [2]: 1.3
IC50 (NCI-H69 [3]): 358 nM

CN(C)CCNC(=O)c1cc2cc(OCc3ccccc3)ccc2c2nc3ccccc3nc12
IC50 (NCI-H69 [1]): 1220 nM
Ratio [2]: 1.29
IC50 (NCI-H69 [3]): 1580 nM

COCCOc1ccc2c(c1)cc(C(=O)NCCN(C)C)c1nc3ccccc3nc12
IC50 (NCI-H69 [1]): 445 nM
Ratio [2]: 1.23
IC50 (NCI-H69 [3]): 545 nM

CN(C)CCNC(=O)c1cc2cccc([N+](=O)[O-])c2c2nc3ccccc3nc12
IC50 (NCI-H69 [1]): 458 nM
Ratio [2]: 1.3
IC50 (NCI-H69 [3]): 584 nM

CN(C)CCNC(=O)c1cc2cccc(N)c2c2nc3ccccc3nc12
IC50 (NCI-H69 [1]): 259 nM
Ratio [2]: 1.33
IC50 (NCI-H69 [3]): 345 nM

CN(C)CCNC(=O)c1cc2cc(OCCN3CCOCC3)ccc2c2nc3ccccc3nc12
IC50 (NCI-H69 [1]): 506 nM
Ratio [2]: 1.17
IC50 (NCI-H69 [3]): 592 nM

CN(C)CCNC(=O)c1cc2cc(O)ccc2c2nc3ccccc3nc12
IC50 (NCI-H69 [1]): 94 nM
Ratio [2]: 2.12
IC50 (NCI-H69 [3]): 198 nM

COc1cccc2c1ccc1nc3cccc(C(=O)N[C@@H](C)CN(C)C)c3nc12
IC50 (NCI-H69 [1]): 20 nM
IC50 (NCI-H69 [3]): 20 nM

CN(C)CCNC(=O)c1cccc2ncc(-c3ccc4ccccc4c3)nc12
IC50 (NCI-H69 [1]): 1820 nM
Ratio [2]: 0.92
IC50 (NCI-H69 [3]): 1670 nM
